Test results: PubChem BioAssay (NCI)
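Method: 48-hour compound exposure of cells in 96-well plates, five concentrations, linear interpolation of endpoints. TGI: concentration producing complete growth inhibition.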

Columns and labels:
Assay in all cases: NCI-60 cell line screen, 48 h
M14 melanoma = system: M14 melanoma
HOP-62 NSCLC = system: HOP-62 NSCLC
OVCAR-3 ovarian = system: OVCAR-3 ovarian
SK-MEL-28 melanoma = system: SK-MEL-28 melanoma
U251 CNS = system: U251 CNS
UACC-257 melanoma = system: UACC-257 melanoma
COLO 205 colon = system: COLO 205 colon
EKVX NSCLC = system: EKVX NSCLC
ACHN renal = system: ACHN renal
SNB-19 CNS = system: SNB-19 CNS
786-0 renal = system: 786-0 renal
SF-268 CNS = system: SF-268 CNS
SF-539 CNS = system: SF-539 CNS
NCI-H23 lung = system: NCI-H23 lung
OVCAR-8 ovarian = system: OVCAR-8 ovarian
SNB-75 CNS = system: SNB-75 CNS
KM20L2 colon = system: KM20L2 colon
DU-145 prostate = system: DU-145 prostate
RPMI-8226 leukemia = system: RPMI-8226 leukemia
DMS 273 small cell lung = system: DMS 273 small cell lung
MOLT-4 leukemia = system: MOLT-4 leukemia
A549 NSCLC = system: A549 NSCLC
LXFL 529 NSCLC = system: LXFL 529 NSCLC
MCF7 breast = system: MCF7 breast
BT-549 breast = system: BT-549 breast
UACC-62 melanoma = system: UACC-62 melanoma
CAKI-1 renal = system: CAKI-1 renal
MDA-N = system: MDA-N
KM12 colon = system: KM12 colon
HCT-116 colon = system: HCT-116 colon
XF 498 CNS = system: XF 498 CNS
SN12C renal = system: SN12C renal
UO-31 renal = system: UO-31 renal
HOP-92 NSCLC = system: HOP-92 NSCLC
RXF 393 renal = system: RXF 393 renal
SNB-78 CNS = system: SNB-78 CNS
TK-10 renal = system: TK-10 renal
M19-MEL melanoma = system: M19-MEL melanoma
HCC-2998 colon = system: HCC-2998 colon
LOX IMVI melanoma = system: LOX IMVI melanoma
SF-295 CNS = system: SF-295 CNS
K-562 leukemia = system: K-562 leukemia
NCI-H522 lung = system: NCI-H522 lung
NCI/ADR-RES ovarian = system: NCI/ADR-RES ovarian
DMS 114 small cell lung = system: DMS 114 small cell lung
SK-OV-3 ovarian = system: SK-OV-3 ovarian
IGROV1 ovarian = system: IGROV1 ovarian
SW-620 colon = system: SW-620 colon
OVCAR-5 ovarian = system: OVCAR-5 ovarian
MDA-MB-435 = system: MDA-MB-435
HS 578T breast = system: HS 578T breast
HOP-18 NSCLC = system: HOP-18 NSCLC
A498 renal = system: A498 renal
MALME-3M melanoma = system: MALME-3M melanoma
MDA-MB-231 breast = system: MDA-MB-231 breast
NCI-H460 lung = system: NCI-H460 lung
OVCAR-4 ovarian = system: OVCAR-4 ovarian
SK-MEL-2 melanoma = system: SK-MEL-2 melanoma
NCI-H226 lung = system: NCI-H226 lung
PC-3 prostate = system: PC-3 prostate
DLD-1 colon = system: DLD-1 colon
HCT-15 colon = system: HCT-15 colon
HL-60(TB) leukemia = system: HL-60(TB) leukemia
HT29 colon = system: HT29 colon
SK-MEL-5 melanoma = system: SK-MEL-5 melanoma
CCRF-CEM leukemia = system: CCRF-CEM leukemia
T-47D breast = system: T-47D breast
RXF-631 renal = system: RXF-631 renal

Structure (SMILES): COc1ccccc1C(=O)N(Cc1ccccc1)c1ccc(Cl)c(C(=O)OC(C)C)c1
- TGI (M14 melanoma): > 100 µM
- TGI (HOP-62 NSCLC): 85.8 µM
- TGI (OVCAR-3 ovarian): > 100 µM
- TGI (SK-MEL-28 melanoma): > 100 µM
- TGI (U251 CNS): > 100 µM
- TGI (UACC-257 melanoma): > 88.7 µM
- TGI (COLO 205 colon): 50.9 µM
- TGI (EKVX NSCLC): > 87.8 µM
- TGI (ACHN renal): 96.8 µM
- TGI (SNB-19 CNS): > 100 µM
- TGI (786-0 renal): > 100 µM
- TGI (SF-268 CNS): > 100 µM
- TGI (SF-539 CNS): > 100 µM
- TGI (NCI-H23 lung): > 82.8 µM
- TGI (OVCAR-8 ovarian): > 100 µM
- TGI (SNB-75 CNS): > 77.5 µM
- TGI (KM20L2 colon): > 100 µM
- TGI (DU-145 prostate): > 100 µM
- TGI (RPMI-8226 leukemia): 29 µM
- TGI (DMS 273 small cell lung): 37.5 µM
- TGI (MOLT-4 leukemia): 66.3 µM
- TGI (A549 NSCLC): > 100 µM
- TGI (LXFL 529 NSCLC): > 100 µM
- TGI (MCF7 breast): > 100 µM
- TGI (BT-549 breast): > 100 µM
- TGI (UACC-62 melanoma): > 100 µM
- TGI (CAKI-1 renal): 71.1 µM
- TGI (MDA-N): > 100 µM
- TGI (KM12 colon): > 81 µM
- TGI (HCT-116 colon): > 100 µM
- TGI (XF 498 CNS): 43.4 µM
- TGI (SN12C renal): > 100 µM
- TGI (UO-31 renal): 54.1 µM
- TGI (HOP-92 NSCLC): > 45.5 µM
- TGI (RXF 393 renal): 62.1 µM
- TGI (SNB-78 CNS): 78 µM
- TGI (TK-10 renal): > 100 µM
- TGI (M19-MEL melanoma): > 100 µM
- TGI (HCC-2998 colon): > 100 µM
- TGI (LOX IMVI melanoma): > 100 µM
- TGI (SF-295 CNS): > 100 µM
- TGI (K-562 leukemia): > 100 µM
- TGI (NCI-H522 lung): 18.3 µM
- TGI (NCI/ADR-RES ovarian): 85.6 µM
- TGI (DMS 114 small cell lung): 56 µM
- TGI (SK-OV-3 ovarian): > 91.7 µM
- TGI (IGROV1 ovarian): > 100 µM
- TGI (SW-620 colon): > 100 µM
- TGI (OVCAR-5 ovarian): > 100 µM
- TGI (MDA-MB-435): > 100 µM
- TGI (HS 578T breast): > 100 µM
- TGI (HOP-18 NSCLC): 56.3 µM
- TGI (A498 renal): > 100 µM
- TGI (MALME-3M melanoma): 85.9 µM
- TGI (MDA-MB-231 breast): > 100 µM
- TGI (NCI-H460 lung): > 100 µM
- TGI (OVCAR-4 ovarian): > 100 µM
- TGI (SK-MEL-2 melanoma): 40.5 µM
- TGI (NCI-H226 lung): 58 µM
- TGI (PC-3 prostate): 75.3 µM
- TGI (DLD-1 colon): > 100 µM
- TGI (HCT-15 colon): > 100 µM
- TGI (HL-60(TB) leukemia): 43.6 µM
- TGI (HT29 colon): > 74 µM
- TGI (SK-MEL-5 melanoma): 26.1 µM
- TGI (CCRF-CEM leukemia): > 100 µM
- TGI (T-47D breast): 78.7 µM
- TGI (RXF-631 renal): > 100 µM
